For experiment [1], the target named is rhesus (Macaca Mulatta) H3 receptor (Macaca mulatta, UniProt Q865E1). Kind of experiment: Rhesus H3 radioligand binding assay ([3H]-Methylhistamine displacement, WGA SPA beads). As to conditions: Table 2; procedure of Example 42. Also noted: species or system rhesus monkey (Macaca Mulatta). As for the experimental part:
(Genbank #AY231164). Stably transfected cultures were amplified in tissue culture flasks by standard tissue culture methods and induced to express rhesus H3 by exposure to 500 ng/ml tetracycline (Cellgro) for 24 hours. After induction, cells were dissociated from flasks utilizing Cell Stripper (Cellgro). Cells were centrifuged (1K×g, 5 min) and pellet frozen in an ethanol-dry ice bath to disrupt cell membranes. Frozen cell pellet was re-suspended in 5 mM HEPES (pH 7.4, Invitrogen) at 10 ml/1000 cm2 of harvested cells. The cell suspension was drawn through an 18 gauge needle (2-3×) followed by a 23 gauge needle (2-3×) to further disrupt cell membranes. The cell suspension was centrifuged (40K×g, 30 min). Cell membrane pellet was re-suspended in 5 mM HEPES (pH 7.4, Invitrogen) at a final protein concentration of 10 mg/ml. Rhesus H3 membranes were stored under liquid nitrogen prior to use in [3H]-Methylhistamine and GTPγS radioligand binding assays.
Rhesus H3 radioligand binding assay was performed using rhesus H3 receptor membranes (prepared as described above), [3H]-Methylhistamine (Perkin Elmer) and WGA SPA beads (wheat germ agglutinin scintillation proximity assay) beads (Amersham). The assay was performed in 96-well Opti-Plates (Packard). Each reaction contained 50 μl rhesus H3 membranes (20-30 μg total protein), 50 μl WGA SPA beads (0.1 μg) and 50 μl of 83 Ci/mmol [^3H]-Methylhistamine (final concentration 2 nM) and 50 μl of tested compound. The compounds of this invention and/or vehicle were diluted with binding buffer from 10 mM DMSO stocks. Assay plates were sealed with TopSeal (Perkin Elmer) and mixed on shaker (25° C., 1 hour). Assay plates were read on TopCount scintillation counter (Packard). Results were analyzed by Hill transformation and Ki values were determined by Cheng-Prusoff equation.

The next experiment has as its target MCH receptor (Homo sapiens, UniProt Q99705). The experiment is described as follows: MCH receptor [125J]-ligand binding filtration assay. Particulars: 10 μM test compound; percent inhibition of ligand binding. The protocol: The activity of the compounds of this invention at the MCH receptor site, if any was measured by the procedures as set forth below. • Test Compounds The compounds of this invention were stored in a 96-well microtiter plates (1 μL, 10 mM, 100% DMSO). Each of the test sample was diluted with 249 μL of 100% DMSO (dilution 1:250). […] Blank: Assay buffer containing 0.4% DMSO were transferred to the dilution microtiter plates for blanks • Assay Procedure: The filter plates with […] of 0.5% PEI-solution/well were incubated for 2 hours at room temperature. PEI was removed by vacuum filtration just before pipetting (Univac Polyfiltronic/Whatman). The solution of the compound as prepared above (50 μL), or MCH ([…]) or Puffer/DMSO (positive control) were added to 96-well round bottom microtiter plate. Then 50 μl of [^125J]-ligand solution was added followed by 100 μl of membrane suspension. The plates were closed with the lids, and incubated for 60 min. at 25° C. The samples were transferred to GF/B filter plate. The reaction mixture was removed by vacuum filtration, washed 4× with 300 μL ice-cold washing buffer and the washing solution was removed by vacuum filtration. The rubber layer at the bottom of the plate was then removed and the filters were dried over night at room temperature. 25 μL of scintillation cocktail was added and the plates were sealed and, plate frames were added and incubated for 1 hour at room temperature. The radioactivity was then measured, settings ^125J standard, 30 sec./well.

Each structure is given as a SMILES string. Where a name gives a salt, the structure may show the parent alone.

In general, Ki refers to a measure of affinity in units of concentration, obtained from inhibition or displacement. The inhibition is the change of the read-out against control, counted positive when it falls.

MCH receptor, sequence (Q99705 whole entry): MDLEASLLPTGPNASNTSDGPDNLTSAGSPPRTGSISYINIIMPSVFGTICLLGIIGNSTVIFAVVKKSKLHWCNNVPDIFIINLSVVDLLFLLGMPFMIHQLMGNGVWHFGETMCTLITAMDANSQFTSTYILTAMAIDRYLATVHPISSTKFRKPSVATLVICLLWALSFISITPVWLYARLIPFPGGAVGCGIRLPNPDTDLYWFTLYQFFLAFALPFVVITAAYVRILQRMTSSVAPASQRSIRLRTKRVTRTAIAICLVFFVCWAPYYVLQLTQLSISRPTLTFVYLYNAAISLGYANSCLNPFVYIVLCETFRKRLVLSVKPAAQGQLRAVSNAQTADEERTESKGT
rhesus (Macaca Mulatta) H3 receptor, sequence (Q865E1 1-445): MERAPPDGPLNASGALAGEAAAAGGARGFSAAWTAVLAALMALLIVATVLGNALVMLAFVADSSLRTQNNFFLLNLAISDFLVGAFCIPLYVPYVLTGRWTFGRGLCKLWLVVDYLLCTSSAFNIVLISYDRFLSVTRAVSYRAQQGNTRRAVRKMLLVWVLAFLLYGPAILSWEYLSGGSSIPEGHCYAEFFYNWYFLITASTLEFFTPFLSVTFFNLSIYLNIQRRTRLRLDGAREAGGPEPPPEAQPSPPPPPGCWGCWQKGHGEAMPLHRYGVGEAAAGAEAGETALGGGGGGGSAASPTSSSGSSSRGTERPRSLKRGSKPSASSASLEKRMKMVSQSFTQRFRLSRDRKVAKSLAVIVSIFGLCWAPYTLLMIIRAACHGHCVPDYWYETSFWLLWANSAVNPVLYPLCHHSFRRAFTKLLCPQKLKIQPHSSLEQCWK

For `Cc1cc(C(=O)Nc2ccc(N3CC[C@H](N4CCC[C@@H]4C)C3)c(C)c2)n[nH]1` (stereo in doubt) [Example 22, 5-Methyl-1H-pyrazole-3-carboxylic acid [3-methyl-4-(2-methyl-[1,3′]bipyrrolidinyl-1′-yl)-phenyl]-amide trifluoroacetate], the Ki in experiment [1] amounted to 17.3 nM. Moreover, at MCH receptor, the inhibition at 10 µM turned out to be 5.6%.

For `Cc1cc(N2CC[C@H](N3CCC[C@@H]3C)C2)ccc1NC(=O)c1c(C)noc1C` [Example 1, 3,5-Dimethyl-isoxazole-4-carboxylic acid [2-methyl-4-(2(2S)-methyl-[1,3′(3′S)]bipyrrolidinyl-1′-yl)-phenyl]-amide], the Ki in experiment [1] came out at 0.4 nM. The inhibition at 10 µM on MCH receptor was found to be 0.7%.

With `Cc1cc(N2CC[C@H](N3CCC[C@@H]3C)C2)ccc1NC(=O)C1CCCCC1` [Example 2, Cyclohexanecarboxylic acid [2-methyl-4-(2S-methyl-[1,3′S]bipyrrolidinyl-1′-yl)-phenyl]-amide trifluoro-acetate], in experiment [1], affinity was put at a Ki of 0.4 nM. On MCH receptor, the inhibition at 10 µM was -2.1%.

On to `Cc1cc(N2CC[C@H](N3CCC[C@@H]3C)C2)ccc1NC(=O)C1CC2CCC1C2` (stereo partly drawn) [Example 3, Bicyclo[2.2.1]heptane-2-carboxylic acid [2-methyl-4-(2S-methyl-[1,3′S]bipyrrolidinyl-1′-yl)-phenyl]-amide trifluoro acetate], for which the affinity in experiment [1] corresponds to a Ki of 0.6 nM. On MCH receptor, the inhibition at 10 µM was -0.8%.

For the molecule `Cc1cc(N2CC[C@H](N3CCC[C@@H]3C)C2)ccc1NC(=O)C1CCOCC1` [Example 4, Tetrahydro-pyran-4-carboxylic acid [2-methyl-4-(2(2S)-methyl-[1,3′(3′S)]bipyrrolidinyl-1′-yl)-phenyl]-amide], in experiment [1], the affinity, expressed as Ki, was 1 nM. For the same molecule, on MCH receptor, the inhibition at 10 µM is -1.6%.

Molecule `Cc1cc(C(=O)Nc2ccc(N3CC[C@H](N4CCC[C@@H]4C)C3)cc2C)on1` [Example 5, 3-Methyl-isoxazole-5-carboxylic acid [2-methyl-4-(2S-methyl-[1,3′ S]bipyrrolidinyl-1′-yl)-phenyl]-amide trifluoro-acetate] gave a Ki in experiment [1] of 1.1 nM. Further, on MCH receptor, the inhibition at 10 µM came to 3.1%.

`Cc1cc(NC(=O)c2c(C)noc2C)ccc1N1CCC(N2CCCC2C)C1` (centres unmarked) [Example 7, 3,5-Dimethyl-isoxazole-4-carboxylic acid [3-methyl-4-(2-methyl-[1,3′]bipyrrolidinyl-1′-yl)-phenyl]-amide trifluoro-acetate] displayed a Ki in experiment [1] of 3.2 nM. For the same molecule, the inhibition at 10 µM at MCH receptor is 5%.

In experiment [1], `Cc1cc(N2CCC(N3CCCC3C)C2)ccc1NC(=O)CC1CCCC1` (centres unmarked) [Example 8, 2-Cyclopentyl-N-[2-methyl-4-(2-methyl-[1,3′]bipyrrolidinyl-1′-yl)-phenyl]-acetamide trifluoro-acetate] yielded a Ki of 8.4 nM. Also, the inhibition at 10 µM on MCH receptor was found to be 1.4%.

For the molecule `CC1CCCN1C1CCN(c2ccc(NC(=O)C3CCOCC3)cc2)C1` (centres unmarked) [Example 9, Tetrahydro-pyran-4-carboxylic acid [4-(2-methyl-[1,3′]bipyrrolidinyl-1′-yl)-phenyl]-amide trifluoro-acetate], in experiment [1], the affinity corresponds to a Ki of 8.7 nM. On MCH receptor, the inhibition at 10 µM was -2.8%.

`Cc1cc(N2CCC(N3CCCC3C)C2)ccc1NC(=O)C1CC1` (centres unmarked) [Example 10, Cyclopropane carboxylic acid [2-methyl-4-(2-methyl-[1,3′]bipyrrolidinyl-1′-yl)-phenyl]-amide trifluoro-acetate]: the Ki in experiment [1] is 9.6 nM. The inhibition at 10 µM on MCH receptor is 4%.

Take `Cc1cc(NC(=O)C2CCOCC2)ccc1N1CCC(N2CCCC2C)C1` (centres unmarked) [Example 11, Tetrahydro-pyran-4-carboxylic acid [3-methyl-4-(2-methyl[1,3′]bipyrrolidinyl-1′-yl)-phenyl]-amide trifluoro-acetate]: the inhibition constant Ki in experiment [1] was 17 nM. Also, the inhibition at 10 µM on MCH receptor came out at 2.7%.

`Cc1cc(N2CCC(N3CCCC3C)C2)ccc1NC(=O)C1C[C@@H]2CC[C@H]1C2` (stereo partly drawn) [Example 12, (1S,4R)-Bicyclo[2.2.1]heptane-2-carboxylic acid [2-methyl-4-(2-methyl-[1,3′]bipyrrolidinyl-1′-yl)-phenyl]-amide trifluoro-acetate] displayed a Ki in experiment [1] of 19.9 nM. The inhibition at 10 µM on MCH receptor is -2.8%.

Take `CC1CCCN1C1CCN(c2ccc(NC(=O)c3cn[nH]c3)cc2)C1` (centres unmarked) [Example 13, 1H-Pyrazole-4-carboxylic acid [4-(2-methyl-[1,3′]bipyrrolidinyl-1′-yl)-phenyl]-amide trifluoro-acetate]: the Ki in experiment [1] was determined as 22.1 nM. In addition, the inhibition at 10 µM at MCH receptor amounted to 4.8%.

On to `Cc1cc(C(=O)Nc2ccc(N3CC[C@H](N4CCC[C@@H]4C)C3)cc2C)n[nH]1` [Example 14, 5-Methyl-1H-pyrazole-3-carboxylic acid [2-methyl-4-(2(2S)-methyl-[1,3′(3′S)]bipyrrolidinyl-1′-yl)-phenyl]-amide], for which the affinity in experiment [1], expressed as Ki, was 4.7 nM. Also, the inhibition at 10 µM at MCH receptor was found to be 28.3%.

As for `Cc1cc(N2CC[C@H](N3CCC[C@@H]3C)C2)ccc1NC(=O)c1cc(C)n(C)n1` [Example 15, 1,5-Dimethyl-1H-pyrazole-3-carboxylic acid [2-methyl-4-(2(2S)-methyl-[1,3′(3′S)]bipyrrolidinyl-1′-yl)-phenyl]-amide hydrochloride], the affinity in experiment [1] corresponds to a Ki of 10.8 nM. Moreover, the inhibition at 10 µM at MCH receptor came to 10.3%.

Regarding `Cc1cc(N2CC[C@H](N3CCC[C@@H]3C)C2)ccc1NC(=O)C1C(C)(C)C1(C)C` [Example 16, 2,2,3,3-Tetramethyl-cyclopropanecarboxylic acid [2-methyl-4-(2(S)-methyl-[1,3′(S)]bipyrrolidinyl-1′-yl)-phenyl]-amide trifluoroacetate], in experiment [1], the Ki was 0.8 nM. The inhibition at 10 µM at MCH receptor is 5.8%.

In experiment [1], `Cc1cc(N2CCC(N3CCCC3C)C2)ccc1NC(=O)C1C(C)(C)C1(C)C` (centres unmarked) [Example 17, 2,2,3,3-Tetramethyl-cyclopropanecarboxylic acid [2-methyl-4-(2-methyl-[1,3′]bipyrrolidinyl-1′-yl)-phenyl]-amide trifluoroacetate] had an inhibition constant Ki of 37.3 nM. The inhibition at 10 µM at MCH receptor was found to be 11.5%.

Regarding `Cc1cc(N2CCC(N3CCCC3C)C2)ccc1NC(=O)c1c(C)noc1C` (centres unmarked) [Example 18, 3,5-Dimethyl-isoxazole-4-carboxylic acid [2-methyl-4-(2-methyl-[1,3′]bipyrrolidinyl-1′-yl)-phenyl]-amide trifluoroacetate], affinity in experiment [1] was put at a Ki of 2.6 nM. In addition, at MCH receptor, the inhibition at 10 µM was -2%.

In experiment [1], `Cc1cc(N2CC[C@H](N3CCC[C@@H]3C)C2)ccc1NC(=O)c1ccco1` [Example 19, Furan-2-carboxylic acid [2-methyl-4-(2(S)-methyl-[1,3′(S)]bipyrrolidinyl-1′-yl)-phenyl]-amide trifluoroacetate] showed a Ki of 3.9 nM. Further, on MCH receptor, the inhibition at 10 µM is 6%.

`Cc1cc(C(=O)Nc2ccc(N3CCC(N4CCCC4C)C3)cc2C)n[nH]1` (centres unmarked) [Example 20, 5-Methyl-1H-pyrazole-3-carboxylic acid [2-methyl-4-(2-methyl-[1,3′]bipyrrolidinyl-1′-yl)-phenyl]-amide trifluoroacetate] gave a Ki in experiment [1] of 30.9 nM. For the same molecule, on MCH receptor, the inhibition at 10 µM amounted to 24.3%.

Consider `Cc1cc(N2CC[C@H](N3CCC[C@@H]3C)C2)ccc1NC(=O)CC1CCCC1` [Example 21, 2-Cyclopentyl-N-[2-methyl-4-(2(S)-methyl-[1,3′(S)]bipyrrolidinyl-1′-yl)-phenyl]-acetamide trifluoroacetate], for which affinity in experiment [1] was put at a Ki of 0.9 nM. On MCH receptor, the inhibition at 10 µM was determined as 1.9%.

Turning to `Cc1cc(NC(=O)C2C[C@@H]3CC[C@H]2C3)ccc1N1CCC(N2CCCC2C)C1` (stereo partly drawn) [Example 23, (1S,4R)-Bicyclo[2.2.1]heptane-2-carboxylic acid [3-methyl-4-(2-methyl-[1,3′]bipyrrolidinyl-1′-yl)-phenyl]-amide trifluoroacetate], the affinity in experiment [1], expressed as Ki, was 130 nM. Moreover, the inhibition at 10 µM on MCH receptor stood at 11.2%.

These data come from patent US8088808B2, “Substituted N-phenyl-bipyrrolidine carboxamides and therapeutic use thereof” (Sanofi, priority 2007, dated 2012).
